# Experiments:
# [1] = target: T1, TrkB (Homo sapiens, UniProt Q16620); experiment: cell-based Enzyme Fragment Complementation (EFC) assay, U2OS cells over-expressing TrkB; conditions: compound pre-mixed with ligand (NGF), final ligand concentration 10 ng/mL, 3 hours at room temperature, read-out: TrkB potency expressed as EC50
# T1 construct: expressed in transfected cells; host or cells: U2OS
# Description: (§1) A high throughput cell-based screen has been used to identify positive modulators of TrkA and TrkB. The screen involves the use of cell-based assay overexpressing TrkA or TrkB. The purpose of the assay is to identify compounds that modulate neurotrophin signalling (Forsell et al 2012). The assay can be used in inhibitor mode using a high concentration of ligand, in modulator mode using an intermediate concentration and in agonist mode using a low concentration of ligand.
# (§2) The assay uses Enzyme Fragment Complementation (EFC) technique, which is a proximity-based assay. Briefly, cells used in this assay over-express two fusion proteins, i.e. the receptor, which can be either of TrkA or TrkB, fused to a small peptide of beta-galactosidase and an adaptor protein, i.e. SHC1 (or any other Trk-adaptor protein) fused to the major part of beta-galactosidase. […] The proximity between the small activating peptide on the receptor and the major part of beta-galactosidase on the adaptor protein leads to an active beta-galactosidase enzyme. The activation of the receptor is quantified by measuring the amount of active beta-galactosidase by its conversion of a non-luminescent substrate into a luminescent product.
# (§3) U2OS-cells, over-expressing TrkA or TrkB, are plated in 96- or 384-well plates and incubated overnight. On the following day, test compound was pre-mixed with ligand (NGF) and the ligand-compound mixture is then added to the cells to yield a final ligand concentration of 10 ng/mL. After 3 hours of incubation at room temperature, the incubation is stopped by the addition of a beta-galactosidase substrate mixture containing detergents. The substrate mixture is incubated for 60 minutes at ambient temperature. The luminescence is thereafter read by the use of a plate reader.
# [2] = target: T2, TrkA (Homo sapiens, UniProt P04629); experiment: cell-based Enzyme Fragment Complementation (EFC) assay, U2OS cells over-expressing TrkA; conditions: compound pre-mixed with ligand (NGF), final ligand concentration 10 ng/mL, 3 hours at room temperature, read-out: TrkA potency expressed as EC50
# T2 construct: expressed in transfected cells; host or cells: U2OS
# T2 sequence (P04629 33-796): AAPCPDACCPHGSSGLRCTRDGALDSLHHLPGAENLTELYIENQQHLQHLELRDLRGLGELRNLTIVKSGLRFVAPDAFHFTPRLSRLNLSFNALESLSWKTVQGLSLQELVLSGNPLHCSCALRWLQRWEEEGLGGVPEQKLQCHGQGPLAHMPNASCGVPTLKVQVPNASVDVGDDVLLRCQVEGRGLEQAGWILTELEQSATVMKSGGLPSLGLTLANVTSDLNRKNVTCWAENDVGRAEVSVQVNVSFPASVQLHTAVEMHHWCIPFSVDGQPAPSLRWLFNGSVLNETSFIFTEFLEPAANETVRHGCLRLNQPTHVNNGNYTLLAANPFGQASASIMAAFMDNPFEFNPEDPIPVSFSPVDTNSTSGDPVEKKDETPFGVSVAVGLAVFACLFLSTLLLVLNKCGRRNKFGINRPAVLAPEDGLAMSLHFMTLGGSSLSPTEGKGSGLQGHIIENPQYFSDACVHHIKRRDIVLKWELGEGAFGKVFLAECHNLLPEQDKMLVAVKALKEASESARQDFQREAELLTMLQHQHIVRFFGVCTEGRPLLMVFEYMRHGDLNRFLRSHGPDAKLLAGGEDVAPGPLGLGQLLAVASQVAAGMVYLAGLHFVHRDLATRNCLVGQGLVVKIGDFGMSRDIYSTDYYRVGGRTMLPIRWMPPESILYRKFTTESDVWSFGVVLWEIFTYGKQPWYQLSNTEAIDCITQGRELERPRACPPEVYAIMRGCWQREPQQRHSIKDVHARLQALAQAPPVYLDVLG
# Description: as §1, §2, §3
# [3] = system: ephrin type-B receptor 2 (EphB2); conditions: Suzuki et al., FEBS Open Bio 2016; cited from earlier work
# T1 sequence (Q16620 32-822): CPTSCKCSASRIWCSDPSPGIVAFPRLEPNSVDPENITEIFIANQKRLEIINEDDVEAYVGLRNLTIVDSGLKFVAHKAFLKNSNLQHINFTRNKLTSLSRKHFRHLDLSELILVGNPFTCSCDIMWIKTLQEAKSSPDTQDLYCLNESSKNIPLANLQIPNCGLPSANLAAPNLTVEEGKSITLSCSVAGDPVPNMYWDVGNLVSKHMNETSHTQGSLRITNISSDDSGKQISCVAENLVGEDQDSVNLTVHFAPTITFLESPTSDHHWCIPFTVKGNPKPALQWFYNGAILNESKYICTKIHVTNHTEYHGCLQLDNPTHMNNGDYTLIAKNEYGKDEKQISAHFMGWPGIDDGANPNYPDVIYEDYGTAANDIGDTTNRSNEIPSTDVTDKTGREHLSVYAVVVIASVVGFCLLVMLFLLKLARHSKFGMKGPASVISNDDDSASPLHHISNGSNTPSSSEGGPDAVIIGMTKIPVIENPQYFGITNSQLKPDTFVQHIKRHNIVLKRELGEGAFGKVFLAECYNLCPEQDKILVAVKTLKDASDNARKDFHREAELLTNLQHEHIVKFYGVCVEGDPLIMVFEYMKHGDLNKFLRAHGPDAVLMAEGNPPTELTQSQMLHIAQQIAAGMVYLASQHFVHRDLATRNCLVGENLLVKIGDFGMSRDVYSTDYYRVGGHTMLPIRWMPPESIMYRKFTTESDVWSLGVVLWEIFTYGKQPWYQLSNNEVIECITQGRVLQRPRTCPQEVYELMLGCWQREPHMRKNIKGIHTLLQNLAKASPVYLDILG
SMILES,EC50 [1] [nM],EC50 [2] [nM],inhibits the binding of p-amyloid oligomers to ephrin type-B receptor 2 (EphB2) [3] [%]
"Cc1cc(-n2c(=O)[nH]c(=O)n(-c3ccccc3)c2=O)ccc1C(C)C [Example 3, 1-[3-methyl-4-(propan-2-yl)phenyl]-3-phenyl-1,3,5-triazinane-2,4,6-trione]",7900,7050,
"Cc1cc(-n2c(=O)[nH]c(=O)n(C)c2=O)ccc1-c1ccccc1 [Example 7, 1-methyl-3-{2-methyl-[1,1′-biphenyl]-4-yl}-1,3,5-triazinane-2,4,6-trione]",20600,6710,
"Cc1cccc(-n2c(=O)[nH]c(=O)n(-c3ccc(-n4cccc4)c(C)c3)c2=O)c1 [Example 11, 1-[3-methyl-4-(1H-pyrrol-1-yl)phenyl]-3-(3-methylphenyl)-1,3,5-triazinane-2,4,6-trione]",70,100,
"Cc1cc(-n2c(=O)[nH]c(=O)n(-c3ccccc3)c2=O)ccc1-c1ccccc1 [Example 1, 1-{2-methyl-[1,1′-biphenyl]-4-yl}-3-phenyl-1,3,5-triazinane-2,4,6-trione]",90,180,
"Cc1cc(-n2c(=O)[nH]c(=O)n(-c3ccccc3)c2=O)ccc1-n1cccc1 [Example 6, 1-[3-methyl-4-(1H-pyrrol-1-yl)phenyl]-3-phenyl-1,3,5-triazinane-2,4,6-trione]",250,240,
"Cc1cc(-n2c(=O)[nH]c(=O)n(-c3ccccc3)c2=O)ccc1N1CCCCC1 [Example 2, 1-[3-methyl-4-(piperidin-1-yl)phenyl]-3-phenyl-1,3,5-triazinane-2,4,6-trione]",1270,1050,
"Cc1cc(-n2c(=O)[nH]c(=O)n(C)c2=O)ccc1Oc1ccc(SC(F)(F)F)cc1 [toltrazuril, 1-methyl-3-(3-methyl-4-{4-[(trifluoromethyl)sulfanyl]phenoxy}phenyl)-1,3,5-triazinane-2,4,6-trione]",,,30
"Cc1ccc(-c2ccc(-n3c(=O)[nH]c(=O)n(-c4ccccc4)c3=O)cc2C)o1 [Example 4, 1-[3-methyl-4-(5-methylfuran-2-yl)phenyl]-3-phenyl-1,3,5-triazinane-2,4,6-trione]",2080,6770,
"Cc1cc(-n2c(=O)[nH]c(=O)n(-c3ccccc3)c2=O)ccc1-n1cccn1 [Example 8, 1-[3-methyl-4-(1H-pyrazol-1-yl)phenyl]-3-phenyl-1,3,5-triazinane-2,4,6-trione]",6220,5560,
"CCc1ccc(-c2ccc(-n3c(=O)[nH]c(=O)n(C)c3=O)cc2C)cc1 [Example 5, 1-{4′-ethyl-2-methyl-[1,1′-biphenyl]-4-yl}-3-methyl-1,3,5-triazinane-2,4,6-trione]",3000,7200,

# From patent US20210261513A1, “4-SUBSTITUTED PHENYL-1,3,5-TRIAZINE DERIVATIVES AS MODULATORS OF TRK RECEPTORS” (ALZECURE PHARMA AB, priority 2018, published 2021)
